Results as given in ChEMBL document CHEMBL6134853, “Design, Synthesis, and Biological Evaluation of Pyrrolo[1,2-a]quinoxalin-4(5H)-one Derivatives as Potent and Orally Available Noncovalent Bruton's Tyrosine Kinase (BTK) Inhibitors” (J Med Chem, 2025).
Calls of active or inactive are those of the source. No cut-off for these calls is given here.

What was measured:
[1] = biological target: T1, Tyrosine-protein kinase BTK (Homo sapiens, UniProt Q06187); experiment: Inhibition of BTK (unknown origin) by HTRF analysis
T1 sequence (Q06187 whole entry): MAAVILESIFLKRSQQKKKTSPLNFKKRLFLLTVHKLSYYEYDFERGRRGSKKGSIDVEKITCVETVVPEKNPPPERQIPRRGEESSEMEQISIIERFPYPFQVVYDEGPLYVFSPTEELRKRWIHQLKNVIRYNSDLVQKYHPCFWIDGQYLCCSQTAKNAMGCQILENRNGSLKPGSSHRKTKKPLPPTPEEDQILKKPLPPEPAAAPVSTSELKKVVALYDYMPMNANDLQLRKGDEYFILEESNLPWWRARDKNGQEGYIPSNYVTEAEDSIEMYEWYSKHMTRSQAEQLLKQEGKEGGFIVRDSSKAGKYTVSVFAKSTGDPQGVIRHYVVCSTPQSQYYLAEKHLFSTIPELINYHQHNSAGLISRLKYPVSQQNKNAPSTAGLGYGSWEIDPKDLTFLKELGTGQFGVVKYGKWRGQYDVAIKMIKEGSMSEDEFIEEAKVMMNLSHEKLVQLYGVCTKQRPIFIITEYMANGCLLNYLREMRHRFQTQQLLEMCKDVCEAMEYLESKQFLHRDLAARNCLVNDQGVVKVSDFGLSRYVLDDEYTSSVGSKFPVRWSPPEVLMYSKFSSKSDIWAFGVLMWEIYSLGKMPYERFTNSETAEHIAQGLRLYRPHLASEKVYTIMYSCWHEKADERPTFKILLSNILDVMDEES

[2] = Cmax in male Sprague-Dawley rat at 10 mg/kg, po measured up to 5 hrs by LC-MS/MS analysis; assay type: ADME, organism-based; settings: in vivo
[3] = MRT (0 to 5 hrs) in male Sprague-Dawley rat at 10 mg/kg, po measured up to 5 hrs by LC-MS/MS analysis; assay type: ADME, organism-based; settings: in vivo
[4] = biological target: T2, Tyrosine-protein kinase Tec (Homo sapiens) (UniProt P42680); experiment: Inhibition of TEC (unknown origin) at 100 nM relative to control
T2 sequence (whole entry): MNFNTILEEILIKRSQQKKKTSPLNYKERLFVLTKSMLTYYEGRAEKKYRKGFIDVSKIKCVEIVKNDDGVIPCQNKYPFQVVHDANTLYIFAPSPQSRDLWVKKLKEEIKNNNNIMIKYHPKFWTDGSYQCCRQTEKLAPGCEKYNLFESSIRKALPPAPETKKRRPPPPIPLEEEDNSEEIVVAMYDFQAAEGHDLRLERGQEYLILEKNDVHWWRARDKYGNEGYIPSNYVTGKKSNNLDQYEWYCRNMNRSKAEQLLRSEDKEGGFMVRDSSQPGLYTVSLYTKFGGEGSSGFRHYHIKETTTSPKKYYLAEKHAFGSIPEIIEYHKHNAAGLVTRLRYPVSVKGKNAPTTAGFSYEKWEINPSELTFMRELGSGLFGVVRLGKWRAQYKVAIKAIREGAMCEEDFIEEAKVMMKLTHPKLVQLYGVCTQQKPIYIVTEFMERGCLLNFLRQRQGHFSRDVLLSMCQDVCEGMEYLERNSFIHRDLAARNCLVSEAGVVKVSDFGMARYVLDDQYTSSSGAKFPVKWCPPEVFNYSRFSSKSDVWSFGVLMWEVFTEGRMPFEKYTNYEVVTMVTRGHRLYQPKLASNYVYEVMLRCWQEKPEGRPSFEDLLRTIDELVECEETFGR

[5] = biological target: Phosphatidylinositol 4-phosphate 5-kinase type-1 alpha (Homo sapiens) (UniProt Q99755); experiment: Inhibition of PIP5K1A (unknown origin) at 100 nM relative to control
Chain of Phosphatidylinositol 4-phosphate 5-kinase type-1 alpha (Homo sapiens) (Q99755 whole entry): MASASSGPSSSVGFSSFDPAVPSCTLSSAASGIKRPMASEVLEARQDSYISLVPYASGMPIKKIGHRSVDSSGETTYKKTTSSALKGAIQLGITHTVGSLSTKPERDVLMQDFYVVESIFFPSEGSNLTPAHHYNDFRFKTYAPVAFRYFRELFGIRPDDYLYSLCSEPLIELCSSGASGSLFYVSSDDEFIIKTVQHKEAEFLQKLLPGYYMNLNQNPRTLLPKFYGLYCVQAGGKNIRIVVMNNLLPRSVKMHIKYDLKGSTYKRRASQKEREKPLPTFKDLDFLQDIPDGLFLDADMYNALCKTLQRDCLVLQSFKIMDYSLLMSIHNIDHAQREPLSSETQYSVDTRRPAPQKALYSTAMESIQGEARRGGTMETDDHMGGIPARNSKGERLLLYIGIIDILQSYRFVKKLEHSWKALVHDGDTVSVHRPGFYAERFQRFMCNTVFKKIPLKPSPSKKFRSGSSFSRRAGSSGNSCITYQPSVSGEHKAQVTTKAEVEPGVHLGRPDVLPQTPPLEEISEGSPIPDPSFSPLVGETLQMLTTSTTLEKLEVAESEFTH

[6] = biological target: T3, Serine/threonine-protein kinase RIO3 (Homo sapiens) (UniProt O14730); experiment: Inhibition of RIOK3 (unknown origin) at 100 nM relative to control
T3 sequence (whole entry): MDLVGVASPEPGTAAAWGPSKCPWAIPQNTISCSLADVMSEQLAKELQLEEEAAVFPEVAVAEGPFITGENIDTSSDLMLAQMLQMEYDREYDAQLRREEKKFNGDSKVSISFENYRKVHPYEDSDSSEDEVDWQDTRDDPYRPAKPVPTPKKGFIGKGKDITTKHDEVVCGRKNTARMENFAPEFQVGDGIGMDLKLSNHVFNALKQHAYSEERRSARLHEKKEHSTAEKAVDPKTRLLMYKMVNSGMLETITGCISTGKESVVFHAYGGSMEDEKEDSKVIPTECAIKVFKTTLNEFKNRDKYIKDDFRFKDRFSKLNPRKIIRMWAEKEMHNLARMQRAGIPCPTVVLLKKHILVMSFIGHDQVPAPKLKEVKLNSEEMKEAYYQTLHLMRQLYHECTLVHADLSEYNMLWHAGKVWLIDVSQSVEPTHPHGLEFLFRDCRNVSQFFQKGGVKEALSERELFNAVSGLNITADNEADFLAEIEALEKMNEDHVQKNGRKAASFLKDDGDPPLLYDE

[7] = biological target: T1, Tyrosine-protein kinase BTK; experiment: Inhibition of BTK phosphorylation at Y223 residue in anti-IgM induced human U-937 cells preincubated with compound for 4 hrs followed by anti-IgM induction and measured after 15 mins by Western blot analysis; assay type: cell-based; settings: dose <= 1.0 µM, time 255.0 min
[8] = biological target: T1, Tyrosine-protein kinase BTK; experiment: Inhibition of BTK phosphorylation at Y223 residue in anti-IgM induced human Ramos cells preincubated with compound for 4 hrs followed by anti-IgM induction and measured after 15 mins by Western blot analysis; assay type: cell-based; settings: dose <= 1.0 µM, time 255.0 min
[9] = system: U-937; experiment: Induction of cell cycle arrest in human U-937 cells assessed as accumulation of cells at S-phase incubated for 2 days by PI staining based flow cytometry analysis; assay type: functional; settings: dose 1-10 µM, time 2.0 day
[10] = system: U-937; experiment: Induction of apoptosis in human U-937 cells incubated for 2 days by Annexin V/PI staining based flow cytometry analysis; assay type: functional, cell-based; settings: dose 1-10 µM, time 2.0 day
[11] = system: U-937; experiment: Antitumor activity against human U-937 cells xenografted in BALB/c mouse assessed as tumor growth inhibition at 100 mg/kg, po administered once a day for 14 days; assay type: functional; settings: U-937, 336 h, time 14 day, read-out: TGI
[12] = Toxicity in BALB/c mouse xenografted with human U-937 cells assessed as parenchymal injury in heart at 50 to 100 mg/kg, po administered once a day for 14 days by H and E staining based analysis; assay type: organism-based; settings: in vivo, 336 h, dose 50-100 mg/kg, time 14 day
[13] = Toxicity in BALB/c mouse xenografted with human U-937 cells assessed as parenchymal injury in liver at 50 to 100 mg/kg, po administered once a day for 14 days by H and E staining based analysis; assay type: organism-based; settings: in vivo, 336 h, dose 50-100 mg/kg, time 14 day
[14] = Toxicity in BALB/c mouse xenografted with human U-937 cells assessed as parenchymal injury in spleen at 50 to 100 mg/kg, po administered once a day for 14 days by H and E staining based analysis; assay type: organism-based; settings: in vivo, 336 h, dose 50-100 mg/kg, time 14 day
[15] = Toxicity in BALB/c mouse xenografted with human U-937 cells assessed as parenchymal injury in lung at 50 to 100 mg/kg, po administered once a day for 14 days by H and E staining based analysis; assay type: organism-based; settings: in vivo, 336 h, dose 50-100 mg/kg, time 14 day
[16] = Toxicity in BALB/c mouse xenografted with human U-937 cells assessed as inflammatory infiltration in heart at 50 to 100 mg/kg, po administered once a day for 14 days by H and E staining based analysis; assay type: organism-based; settings: in vivo, 336 h, dose 50-100 mg/kg, time 14 day
[17] = Toxicity in BALB/c mouse xenografted with human U-937 cells assessed as inflammatory infiltration in spleen at 50 to 100 mg/kg, po administered once a day for 14 days by H and E staining based analysis; assay type: organism-based; settings: in vivo, 336 h, dose 50-100 mg/kg, time 14 day
[18] = Toxicity in BALB/c mouse xenografted with human U-937 cells assessed as inflammatory infiltration in lung at 50 to 100 mg/kg, po administered once a day for 14 days by H and E staining based analysis; assay type: organism-based; settings: in vivo, 336 h, dose 50-100 mg/kg, time 14 day
[19] = Toxicity in BALB/c mouse xenografted with human U-937 cells assessed as inflammatory infiltration in kidney at 50 to 100 mg/kg, po administered once a day for 14 days by H and E staining based analysis; assay type: organism-based; settings: in vivo, 336 h, dose 50-100 mg/kg, time 14 day

IC50 [1]: 21.6 nM
Cmax [2]: 62.4 ng/mL
MRT last at 5 h [3]: 1.48 h
inhibition [4]: Active
inhibition [5]: Active
inhibition [6]: Active
inhibition [7]: Dose-dependent-effect
inhibition [8]: Dose-dependent-effect
SMILES: CC(C)(O)c1ccc2c(c1)[nH]c(=O)c1ccc(-c3cccc(-n4c(=O)[nH]c5c(F)cccc5c4=O)c3F)n12
Activity [9]: Dose-dependent-effect
Activity [10]: Dose-dependent-effect
inhibition in vivo at 100 mg/kg [11]: 74.9%
Activity [12]: Non-toxic
Activity [13]: Non-toxic
Activity [14]: Non-toxic
Activity [15]: Non-toxic
Activity [16]: Non-toxic
Activity [17]: Non-toxic
Activity [18]: Non-toxic
Activity [19]: Non-toxic
